Assay results as given in patent US7928226B2, “Salts and polymorphs of a VEGF-R inhibitor” (Agouron Pharmaceuticals Inc., priority 2005, dated 2011).
Read-outs that look alike come from different tables or passages of the source.

Key:
[1] = Solid state stability at 40° C./75% RH (HPLC and polymorphic form); format: physicochemical
Experimental: The solid state stabilities as shown in Tables 5 and 7 were measured using the following procedure. A preliminary HPLC method was developed to investigate the stability of the salt forms of compound 1. The HPLC conditions are listed below.

Water solubility = format: physicochemical
[2] = system: VEGF-stimulated receptor autophosphorylation; conditions: cited from earlier work
[3] = system: endothelial cell survival; conditions: cited from earlier work
tumor angiogenesis = conditions: in vivo; cited from earlier work
human xenograft tumors = conditions: in vivo; cited from earlier work

## CNC(=O)c1c(C)oc2cc(Oc3ccnc4cc(OCCN5CCOCC5)ccc34)ccc12 [Bis-HBr Form I, N,2-dimethyl-6-[7-(2-morpholinoethoxy)quinolin-4-yloxy]benzofuran-3-carboxamide]
[1]; bis-HBr salt
  Solid state stability, polymorphic form found, T (1 week) close: Form 1
  Solid state stability, polymorphic form found, T (1 week) open: Form I & II
  Solid state stability, polymorphic form found, T (4 week) close: Form I & II
  Solid state stability, polymorphic form found, T (4 week) open: Form II
  Solid state stability, polymorphic form found, T (6 week) close: Form II
  Solid state stability, polymorphic form found, T (6 week) open: Form II
  Solid state stability, polymorphic form found, T (0): Form 1
Water solubility; pH 3.4, read-out: Solubility
  solubility: > 30 mg/mL

## CNC(=O)c1c(C)oc2cc(Oc3ccnc4cc(OCCN5CCOCC5)ccc34)ccc12 [Bis-maleate Form III, N,2-dimethyl-6-[7-(2-morpholinoethoxy)quinolin-4-yloxy]benzofuran-3-carboxamide]
[1]; bis-maleate salt
  Solid state stability, polymorphic form found, T (1 week) close: Form III
  Solid state stability, polymorphic form found, T (4 week) close: Form III
  Solid state stability (HPLC %) T (6 week) close: 99.9%
  Solid state stability, polymorphic form found, T (6 week) close: Form III
  Solid state stability (HPLC %) T (0): 99.9%
  Solid state stability, polymorphic form found, T (0): Form III
Water solubility; pH 3.8, read-out: Solubility
  solubility: ≥ 30 mg/mL

## CNC(=O)c1c(C)oc2cc(Oc3ccnc4cc(OCCN5CCOCC5)ccc34)ccc12 [Bis-HBr Form II, N,2-dimethyl-6-[7-(2-morpholinoethoxy)quinolin-4-yloxy]benzofuran-3-carboxamide]
[1]; bis-HBr salt
  Solid state stability (HPLC %) T (1 week) close: 98.70%
  Solid state stability, polymorphic form found, T (1 week) close: Form II
  Solid state stability (HPLC %) T (1 week) open: 98.61%
  Solid state stability, polymorphic form found, T (1 week) open: Form II
  Solid state stability (HPLC %) T (4 week) close: 98.66%
  Solid state stability, polymorphic form found, T (4 week) close: Form II
  Solid state stability (HPLC %) T (4 week) open: 98.62%
  Solid state stability, polymorphic form found, T (4 week) open: Form II
  Solid state stability (HPLC %) T (6 week) close: 98.61%
  Solid state stability, polymorphic form found, T (6 week) close: Form II
  Solid state stability (HPLC %) T (6 week) open: 98.49%
  Solid state stability, polymorphic form found, T (6 week) open: Form II
  Solid state stability (HPLC %) T (0): 98.53%
  Solid state stability, polymorphic form found, T (0): Form II
Water solubility; pH 3.4
  solubility: >30 mg/ml (pH 3.4)

## CNC(=O)c1c(C)oc2cc(Oc3ccnc4cc(OCCN5CCOCC5)ccc34)ccc12 [compound 1, N,2-dimethyl-6-[7-(2-morpholinoethoxy)quinolin-4-yloxy]benzofuran-3-carboxamide]
[2]
  blocking of VEGF-stimulated receptor autophosphorylation: selectively blocks
[3]
  blocking of endothelial cell survival: selectively blocks
Tumor angiogenesis
  inhibition of tumor angiogenesis: significant inhibition
Human xenograft tumors
  inhibition of the growth of human xenograft tumors: significant inhibition

## CNC(=O)c1c(C)oc2cc(Oc3ccnc4cc(OCCN5CCOCC5)ccc34)ccc12 [Bis-maleate Form I, N,2-dimethyl-6-[7-(2-morpholinoethoxy)quinolin-4-yloxy]benzofuran-3-carboxamide]
[1]; bis-maleate salt
  Solid state stability (HPLC %) T (1 week) close: 99.9%
  Solid state stability, polymorphic form found, T (1 week) close: Form I
  Solid state stability (HPLC %) T (1 week) open: 99.9%
  Solid state stability, polymorphic form found, T (1 week) open: Form I
  Solid state stability (HPLC %) T (4 week) close: 99.9%
  Solid state stability, polymorphic form found, T (4 week) close: Form I
  Solid state stability (HPLC %) T (4 week) open: 99.9%
  Solid state stability, polymorphic form found, T (4 week) open: Form I
  Solid state stability (HPLC %) T (6 week) close: 99.9%
  Solid state stability, polymorphic form found, T (6 week) close: Form I
  Solid state stability (HPLC %) T (6 week) open: 99.8%
  Solid state stability, polymorphic form found, T (6 week) open: Form I
  Solid state stability (HPLC %) T (0): 99.9%
  Solid state stability, polymorphic form found, T (0): Form I
Water solubility; pH 3.6, read-out: Solubility
  solubility: ≥ 150 mg/mL
